Test results: patent publication US7767240B2, “Microbiological control in poultry processing” (priority 2001, dated 2010)

Columns and labels:
Enterococcus faecium = assay: AOAC test method, kill of bacterial culture; assay type: cell-based; settings: for concentration required to achieve complete kill within 30 seconds: Enterococcus faecium, AOAC test
Method: (§1) One such series of tests involved determinations of microbiological control against Escherichia coli bacteria. Another set of tests involved determinations of microbiological control against Enterococcus faecium. In each case, comparative tests were carried out in the same manner utilizing the AOAC test method. Such test involves exposing a culture of the microorganism to various concentrations of a test solution prepared from an aqueous stock solution of the compound under test. At various time intervals the halogen in the test suspensions is chemically neutralized, and the amount of viable bacteria remaining is enumerated by plating onto nutrient agar and incubating for 2 days at 37° C. Results are expressed at the log10 colony forming units (CFU). The concentration of the compound required to achieve complete kill (i.e., no viable bacteria remain) within 30 seconds is determined in the test.
Table 44 summarizes the data obtained in the tests using respectively 1,3-dibromo-5,5-dimethylhydantoin (DBDMH) and N,N-bromochloro-5,5-dimethylhydantoin (BCDMH) and in which the microorganism in each case was Enterococcus faecium.

[1] = assay type: physicochemical
Text: Another mode of applying the microbiocidally-effective amounts of solid-state microbiocides of these embodiments of the invention is to cause the microbiocide to be leached into water streams passing through conduits and into tanks or other washing devices utilized in the processing of the poultry. For example, suitable solid forms of the microbiocide, preferably a bromine-based microbiocide, such as tablets, briquettes, pellets, nuggets, or granules are placed in suitable feeding devices through which a stream of water is passed. The passage of the water through the bed of the microbiocide results in the stream continuously dissolving small quantities of the microbiocide to thereby provide microbiocidally effective amounts of the microbiocide in the water. 1,3-Dibromo-5,5-dimethylhydantoin is especially preferred for use in this mode of application because of its relatively low solubility and thus relatively slow rate of dissolution in water at ambient room temperatures. This translates into relatively long periods of use before need of refilling the device holding the solids.

Escherichia coli = assay: AOAC test method, kill of bacterial culture; assay type: cell-based; settings: for concentration required to achieve complete kill within 30 seconds: Escherichia coli, AOAC test
Method: as §1
Table 43 summarizes the data obtained in the tests using respectively, 1,3-dibromo-5,5-dimethylhydantoin (DBDMH) and N,N′-bromochloro-5,5-dimethylhydantoin (BCDMH) and in which the microorganism in each case was Escherichia coli. It can be seen that 1,3-dibromo-5,5-dimethylhydantoin passed the test at one milligram of bromine, as […] per liter of water, as evidenced by the complete kill within 30 seconds, whereas 1,3-bromochloro-5,5-dimethylhydantoin required two milligrams of bromine, as Br2, per liter of water to achieve complete kill within 30 seconds.

Salmonella = Salmonella positive samples, simulated USDA HACCP detection (Example 7); assay type: cell-based, Salmonella enteritidis; settings: 20 ppm (Cl2 equivalent) during chilling; for Salmonella positive samples (Number 51): birds inoculated with Salmonella prior to chilling, control 21/51; for Salmonella positive samples (%): control 41.18%
Text: After normal processing of 56-day-old birds, carcasses were immersed first in a warm bath containing 10^4 per mL Escherichia coli, 10^4 per mL Salmonella enteritidis, 10^4 per mL Pseudomonas aeruginosa, 10^4 per mL Campylobacter jejuni, and 10^4 per mL spoilage bacteria each from two strains (Listeria monocytogenes and Shigella sonnei). Carcasses were then immersed in a chill tank “soup”, containing normal organic fluids (blood, fat, skin, and meat particles) and containing various disinfectants (termed test materials). These whole bird bacteria count tests were conducted at pH 8. The effect of the test compounds on skin pigmentation was determined by use of Minolta Color Meter L value or Lightness, a value or redness and b value or yellowness. Post-chilling skin bacteria of various strains were determined over a 20-day period. Spoilage, using sensory odors as a model, determined time required to create a putrid/ammonia-like odor. After salmonella infection in chill tanks, USDA HACCP salmonella detection was simulated and reported.
DBDMH and BCDMH stock solutions and diluted test solutions (20 ppm Cl2 equivalent), a bacteria stock solution, and a “chicken soup” were prepared as in Example 3 except that the Stabrom® 909 biocide concentrate was diluted by adding 30 mL per liter of water just prior to application. This diluted solution was sprayed on the birds, both inside and outside, in quantities of 200 mL per bird. In addition, the bacterial broth treatments, the whole bird wash sampling procedure, and the methodologies used for quantitative or qualitative determinations for bacterial organisms were conducted as in Example 3.
The details concerning the trial events used as well as the detailed experimental design used in these tests were the same as described in Example 6. The only exceptions were: • a) In the case of the birds of Test Group 5 (note Table 38), while the carcass was still warm, the 10 birds were each sprayed both internally and externally, using a misting hand-held nozzle, with 200 mL of the 3% solution of Stabrom 909 biocide (SSBC). […] The spray was allowed to stay on the warm carcasses for 60 seconds. • b) The treatment on sampling day 0 of 102 total of the remaining 110 carcasses from each treatment involving “whole bird” washing and Salmonella detection, all as described in Example 6, was applied only to the birds of Test Groups 1-4 (note Table 38).

[2] = 0.5 mg/L as Br2, contact time 30 sec
[3] = 0.5 mg/L as Br2, contact time 1 min
[4] = 0.5 mg/L as Br2, contact time 2 min
[5] = 0.5 mg/L as Br2, contact time 3 min
[6] = 0.5 mg/L as Br2, contact time 4 min
[7] = 0.5 mg/L as Br2, contact time 5 min
[8] = 0.5 mg/L as Br2, contact time 10 min
[9] = 1.0 mg/L as Br2, contact time 30 sec
[10] = 1.0 mg/L as Br2, contact time 1 min
[11] = 1.0 mg/L as Br2, contact time 2 min
[12] = 1.0 mg/L as Br2, contact time 3 min
[13] = 1.0 mg/L as Br2, contact time 4 min
[14] = 1.0 mg/L as Br2, contact time 5 min
[15] = 1.0 mg/L as Br2, contact time 10 min
[16] = 2.0 mg/L as Br2, contact time 30 sec
[17] = 2.0 mg/L as Br2, contact time 1 min
[18] = 2.0 mg/L as Br2, contact time 2 min
[19] = 2.0 mg/L as Br2, contact time 3 min
[20] = 2.0 mg/L as Br2, contact time 4 min
[21] = 2.0 mg/L as Br2, contact time 5 min
[22] = 2.0 mg/L as Br2, contact time 10 min

Compound: CC1(C)C(=O)N(Cl)C(=O)N1Br [BCDMH, N,N′-bromochloro-5,5-dimethylhydantoin]
- Log10 CFU Recovered (Enterococcus faecium; [2]): >4.48 Log10 CFU
- Log10 CFU Recovered (Enterococcus faecium; [3]): 3.53 Log10 CFU
- Log10 CFU Recovered (Enterococcus faecium; [4]): 2.63 Log10 CFU
- Log10 CFU Recovered (Enterococcus faecium; [5]): 0.00 Log10 CFU
- Log10 CFU Recovered (Enterococcus faecium; [6]): 0.00 Log10 CFU
- Log10 CFU Recovered (Enterococcus faecium; [7]): 0.00 Log10 CFU
- Log10 CFU Recovered (Enterococcus faecium; [8]): 0.00 Log10 CFU
- Log10 CFU Recovered (Enterococcus faecium; [9]): >4.48 Log10 CFU
- Log10 CFU Recovered (Enterococcus faecium; [10]): 2.38 Log10 CFU
- Log10 CFU Recovered (Enterococcus faecium; [11]): 0.00 Log10 CFU
- Log10 CFU Recovered (Enterococcus faecium; [12]): 0.00 Log10 CFU
- Log10 CFU Recovered (Enterococcus faecium; [13]): 0.00 Log10 CFU
- Log10 CFU Recovered (Enterococcus faecium; [14]): 0.00 Log10 CFU
- Log10 CFU Recovered (Enterococcus faecium; [15]): 0.00 Log10 CFU
- Log10 CFU Recovered (Enterococcus faecium; [16]): 0.00 Log10 CFU
- Log10 CFU Recovered (Enterococcus faecium; [17]): 0.00 Log10 CFU
- Log10 CFU Recovered (Enterococcus faecium; [18]): 0.00 Log10 CFU
- Log10 CFU Recovered (Enterococcus faecium; [19]): 0.00 Log10 CFU
- Log10 CFU Recovered (Enterococcus faecium; [20]): 0.00 Log10 CFU
- Log10 CFU Recovered (Enterococcus faecium; [21]): 0.00 Log10 CFU
- Log10 CFU Recovered (Enterococcus faecium; [22]): 0.00 Log10 CFU
- concentration required to achieve complete kill within 30 seconds (Enterococcus faecium): two
- solubility in water [1]: 890 ppm expressed as Cl2
- Log10 CFU Recovered (Escherichia coli; [2]): >4.48 Log10 CFU
- Log10 CFU Recovered (Escherichia coli; [3]): 4.46 Log10 CFU
- Log10 CFU Recovered (Escherichia coli; [4]): 1.65 Log10 CFU
- Log10 CFU Recovered (Escherichia coli; [5]): 0 Log10 CFU
- Log10 CFU Recovered (Escherichia coli; [6]): 0 Log10 CFU
- Log10 CFU Recovered (Escherichia coli; [7]): 0 Log10 CFU
- Log10 CFU Recovered (Escherichia coli; [8]): 0 Log10 CFU
- Log10 CFU Recovered (Escherichia coli; [9]): >4.48 Log10 CFU
- Log10 CFU Recovered (Escherichia coli; [10]): 0.7 Log10 CFU
- Log10 CFU Recovered (Escherichia coli; [11]): 0 Log10 CFU
- Log10 CFU Recovered (Escherichia coli; [12]): 0 Log10 CFU
- Log10 CFU Recovered (Escherichia coli; [13]): 0 Log10 CFU
- Log10 CFU Recovered (Escherichia coli; [14]): 0 Log10 CFU
- Log10 CFU Recovered (Escherichia coli; [15]): 0 Log10 CFU
- Log10 CFU Recovered (Escherichia coli; [16]): 0 Log10 CFU
- Log10 CFU Recovered (Escherichia coli; [17]): 0 Log10 CFU
- Log10 CFU Recovered (Escherichia coli; [18]): 0 Log10 CFU
- Log10 CFU Recovered (Escherichia coli; [19]): 0 Log10 CFU
- Log10 CFU Recovered (Escherichia coli; [20]): 0 Log10 CFU
- Log10 CFU Recovered (Escherichia coli; [21]): 0 Log10 CFU
- Log10 CFU Recovered (Escherichia coli; [22]): 0 Log10 CFU
- concentration required to achieve complete kill within 30 seconds (Escherichia coli): two
- Salmonella positive samples (Number 51) (Salmonella): 6/51
- Salmonella positive samples (%) (Salmonella): 11.76%

Compound: CC1(C)C(=O)N(Br)C(=O)N1Br [DBDMH, 1,3-dibromo-5,5-dimethylhydantoin]
- Log10 CFU Recovered (Enterococcus faecium; [2]): 4.32 Log10 CFU
- Log10 CFU Recovered (Enterococcus faecium; [3]): 2.36 Log10 CFU
- Log10 CFU Recovered (Enterococcus faecium; [4]): 0.00 Log10 CFU
- Log10 CFU Recovered (Enterococcus faecium; [5]): 0.00 Log10 CFU
- Log10 CFU Recovered (Enterococcus faecium; [6]): 0.00 Log10 CFU
- Log10 CFU Recovered (Enterococcus faecium; [7]): 0.00 Log10 CFU
- Log10 CFU Recovered (Enterococcus faecium; [8]): 0.00 Log10 CFU
- Log10 CFU Recovered (Enterococcus faecium; [9]): 0.00 Log10 CFU
- Log10 CFU Recovered (Enterococcus faecium; [10]): 0.00 Log10 CFU
- Log10 CFU Recovered (Enterococcus faecium; [11]): 0.00 Log10 CFU
- Log10 CFU Recovered (Enterococcus faecium; [12]): 0.00 Log10 CFU
- Log10 CFU Recovered (Enterococcus faecium; [13]): 0.00 Log10 CFU
- Log10 CFU Recovered (Enterococcus faecium; [14]): 0.00 Log10 CFU
- Log10 CFU Recovered (Enterococcus faecium; [15]): 0.00 Log10 CFU
- Log10 CFU Recovered (Enterococcus faecium; [16]): 0.00 Log10 CFU
- Log10 CFU Recovered (Enterococcus faecium; [17]): 0.00 Log10 CFU
- Log10 CFU Recovered (Enterococcus faecium; [18]): 0.00 Log10 CFU
- Log10 CFU Recovered (Enterococcus faecium; [19]): 0.00 Log10 CFU
- Log10 CFU Recovered (Enterococcus faecium; [20]): 0.00 Log10 CFU
- Log10 CFU Recovered (Enterococcus faecium; [21]): 0.00 Log10 CFU
- Log10 CFU Recovered (Enterococcus faecium; [22]): 0.00 Log10 CFU
- concentration required to achieve complete kill within 30 seconds (Enterococcus faecium): one
- solubility in water [1]: 405 ppm expressed as Cl2
- Log10 CFU Recovered (Escherichia coli; [2]): >4.48 Log10 CFU
- Log10 CFU Recovered (Escherichia coli; [3]): 1.70 Log10 CFU
- Log10 CFU Recovered (Escherichia coli; [4]): 0 Log10 CFU
- Log10 CFU Recovered (Escherichia coli; [5]): 0 Log10 CFU
- Log10 CFU Recovered (Escherichia coli; [6]): 0 Log10 CFU
- Log10 CFU Recovered (Escherichia coli; [7]): 0 Log10 CFU
- Log10 CFU Recovered (Escherichia coli; [8]): 0 Log10 CFU
- Log10 CFU Recovered (Escherichia coli; [9]): 0 Log10 CFU
- Log10 CFU Recovered (Escherichia coli; [10]): 0 Log10 CFU
- Log10 CFU Recovered (Escherichia coli; [11]): 0 Log10 CFU
- Log10 CFU Recovered (Escherichia coli; [12]): 0 Log10 CFU
- Log10 CFU Recovered (Escherichia coli; [13]): 0 Log10 CFU
- Log10 CFU Recovered (Escherichia coli; [14]): 0 Log10 CFU
- Log10 CFU Recovered (Escherichia coli; [15]): 0 Log10 CFU
- Log10 CFU Recovered (Escherichia coli; [16]): 0 Log10 CFU
- Log10 CFU Recovered (Escherichia coli; [17]): 0 Log10 CFU
- Log10 CFU Recovered (Escherichia coli; [18]): 0 Log10 CFU
- Log10 CFU Recovered (Escherichia coli; [19]): 0 Log10 CFU
- Log10 CFU Recovered (Escherichia coli; [20]): 0 Log10 CFU
- Log10 CFU Recovered (Escherichia coli; [21]): 0 Log10 CFU
- Log10 CFU Recovered (Escherichia coli; [22]): 0 Log10 CFU
- concentration required to achieve complete kill within 30 seconds (Escherichia coli): one
- Salmonella positive samples (Number 51) (Salmonella): 1/51
- Salmonella positive samples (%) (Salmonella): 1.96%
